# Biological target: T1, HCV NS3 helicase NS3h_1b(con1) (Hepatitis C virus genotype 1b, UniProt Q9WMX2)
# T1 construct: truncated C-terminally His-tagged NS3 proteins lacking the N-terminal protease, called NS3h; His-tag (C); made in house
# Test: MBHA screen of NCI mechanistic set library at 20 μM (percent inhibition, compound interference)
# Format: biochemical
# Settings: compounds at 20 μM; for Inh. (%) (Inhibition): calculated from Equation 1
# Outline: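 Molecular beacon-based DNA unwinding assay; compounds screened at 20 μM in triplicate, with DMSO-only negative and 500 nM dT20 positive controls. Fluorescence (ex 643/em 670 nm) was read before and 30 min after adding ATP to 1 mM. Percent inhibition came from the change relative to DMSO controls; interference from pre-ATP fluorescence versus DMSO controls.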
# [1] = MBHA with DNA substrate, assay interference calculated with Equation 2
# [2] = assay interference calculated with Equation 2 (fluorescence vs DMSO-only controls before ATP)
# T1 sequence (Q9WMX2 1192-1657): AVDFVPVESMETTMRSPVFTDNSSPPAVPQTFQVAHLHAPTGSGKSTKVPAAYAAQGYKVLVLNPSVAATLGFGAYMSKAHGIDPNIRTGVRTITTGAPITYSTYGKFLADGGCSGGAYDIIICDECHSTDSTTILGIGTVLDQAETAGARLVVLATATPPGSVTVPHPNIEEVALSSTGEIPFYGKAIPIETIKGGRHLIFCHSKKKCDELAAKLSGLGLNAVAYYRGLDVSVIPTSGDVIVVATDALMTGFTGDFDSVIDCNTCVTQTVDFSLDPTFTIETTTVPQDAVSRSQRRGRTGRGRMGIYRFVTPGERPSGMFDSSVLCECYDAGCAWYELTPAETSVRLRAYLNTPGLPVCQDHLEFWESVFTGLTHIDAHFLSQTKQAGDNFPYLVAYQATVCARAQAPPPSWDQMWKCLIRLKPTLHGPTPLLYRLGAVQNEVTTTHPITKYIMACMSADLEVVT
Int.* (Ratio) (Interference) [1],Inh. (%) (Inhibition) (MBHA with DNA substrate),Inh. (%) (Inhibition) (MBHA with a DNA substrate),Int.* (Ratio) (Interference) [2],"Inh. (%) (Inhibition) (MBHA with DNA substrate, 20 µM)",Compound
0.91 Ratio,−0.8%,,,,CCCc1c(Cl)nc(Cl)nc1Cl [Compound 66914]
0.96 Ratio,−16.1%,,,,CC[C@]1(O)C[C@H]2CN(CCc3c([nH]c4ccccc34)[C@@](C(=O)OC)(c3cc4c(cc3OC)N(C=O)[C@H]3[C@@](O)(C(=O)OC)[C@H](OC(C)=O)[C@]5(CC)C=CCN6CC[C@]43[C@@H]65)C2)C1 [Compound 67574]
,,−27.4%,1.12 Ratio,,COc1cc(-c2cc(=O)c3c(OC)c(OC)c(OC)c(OC)c3o2)cc(OC)c1OC [Compound 67580]
1.16 Ratio,−9.5%,,,,O=C(O)c1ccccc1-c1ccccc1C(=O)Nc1ccc2c(c1)Cc1ccccc1-2 [Compound 67690]
1.02 Ratio,23.1%,,,,COc1cc(C[C@H]2c3cc(OC)c(OC)cc3CCN2C)c(Oc2cc3c(cc2OC)-c2c(OC)c(OC)cc4c2[C@H](C3)N(C)CC4)cc1OC [Compound 68075]
0.22 Ratio,99.2%,,,,COc1ccc2[nH]c3c(C)c4ccncc4c(C)c3c2c1 [Compound 69187]
1.06 Ratio,−8.6%,,,,Cl.Cl.Cl.Cl.NCCCNCCCCNCCCN [Compound 69852]
0.85 Ratio,,,,33.9%,Nc1ncnc2c1ncn2C1OC(CO)C(O)C1O (centres unmarked) [Compound 70422]
0.59 Ratio,84.4%,,,,COC(=O)C1c2cc3c(c(O)c2C(OC2OC(C)C(OC)C(C)(OC)C2OC)CC1(C)O)C(=O)c1c(O)cc2c(c1C3=O)OC1OC2(C)C(O)C(N(C)C)C1O (centres unmarked) [Compound 70845]
0.20 Ratio,32.1%,,,,Cc1cc2c(c3oc(C4(C)OC4C4OC4C)cc(=O)c13)C(=O)c1c(O)c(C3CC(C)(N(C)C)C(O)C(C)O3)cc(C3CC(N(C)C)C(O)C(C)O3)c1C2=O (centres unmarked) [Compound 70929]
1.12 Ratio,2.2%,,,,COc1ccc(OC)c(-c2cc(=O)c3c(OC)c(OC)c(OC)c(OC)c3o2)c1 [Compound 71300]
1.06 Ratio,12.4%,,,,Nc1nc(N)c(-c2cccc(C(F)(F)F)c2)c(Cc2cccc(C(F)(F)F)c2)n1 [Compound 71669]
,,10.2%,0.94 Ratio,,Nc1nc(=S)c2ncn([C@@H]3C[C@H](O)[C@@H](CO)O3)c2[nH]1 [Compound 71851]
,,8.5%,0.98 Ratio,,Nc1ncnc2c1nnn2[C@@H]1O[C@H](CO)[C@@H](O)[C@H]1O [Compound 72961]
,,−5.1%,1.01 Ratio,,CC(=O)C1=C(O)C2(O)C(=O)c3c(c(C)c4ccc(C)c(O)c4c3O)CC2C(N)C1=O.CCCCCCCCCCCCOS(=O)(=O)O (centres unmarked) [Compound 73495]
,,−6.1%,1.10 Ratio,,Cl.NC(N)=N/N=C(\c1ccc(Cl)cc1)C1CC1 [Compound 74420]
,,−5.5%,0.85 Ratio,,O=C(Nc1ccc(Sc2ccc(N=Nc3c(O)c(S(=O)(=O)O)cc4cc(S(=O)(=O)O)ccc34)cc2)cc1)c1ccc(N=Nc2c(O)ccc3c(S(=O)(=O)O)cc(S(=O)(=O)O)cc23)cc1 [Compound 76027]
1.14 Ratio,−1.2%,,,,CC1=Nc2ccccc2/C1=C\c1c(C)[nH]c2ccccc12 [Compound 76747]
,,9.8%,1.00 Ratio,,C[C@]12C=CC(=O)C=C1[C@@H](F)C[C@H]1[C@@H]3CC[C@](O)(C(=O)CO)[C@@]3(C)C[C@H](O)[C@@]12F [Compound 77021]
0.98 Ratio,4.7%,,,,CCCCOc1ccc(NC(N)=Nc2ccc(Cl)cc2)cc1 [Compound 78365]
0.98 Ratio,−11.9%,,,,Cc1ccc([N+](=O)[O-])cc1NC(=O)c1cccc([N+](=O)[O-])c1O [Compound 79451]
0.97 Ratio,−14.5%,,,,Cc1ccc(NC(=O)c2cccc([N+](=O)[O-])c2O)c(C)c1 [Compound 79456]
,,−7.0%,1.17 Ratio,,CN(C)c1ccc(/C=C2/C=Cc3ccccc32)cc1 [Compound 80087]
1.12 Ratio,−10.6%,,,,O=C(CC(=O)C(F)(F)F)c1csc2ccccc12 [Compound 80396]

Int.* (Ratio) (Interference) [1],Inh. (%) (Inhibition) (MBHA with DNA substrate),Inh. (%) (Inhibition) (MBHA with a DNA substrate),Int.* (Ratio) (Interference) [2],"Inh. (%) (Inhibition) (MBHA with DNA substrate, 20 µM)",Compound
0.97 Ratio,1.2%,,,,COc1cc(OC)c(OC)cc1/C=C/c1ccnc2ccccc12 [Compound 80756]
,,10.4%,0.94 Ratio,,Cc1ccc(NC(=O)c2cccc([N+](=O)[O-])c2O)c([N+](=O)[O-])c1 [Compound 82025]
,,−6.7%,1.10 Ratio,,CCOC(C)C(C=NNC(N)=S)=NNC(N)=S (centres unmarked) [Compound 82116]
,,−22.5%,0.98 Ratio,,N[C@@H](CSC(c1ccccc1)(c1ccccc1)c1ccccc1)C(=O)O [Compound 83265]
,,−31.4%,1.11 Ratio,,BrCCC[P+](c1ccccc1)(c1ccccc1)c1ccccc1.[Br-] [Compound 84074]
0.90 Ratio,68.8%,,,,O=[N+]([O-])c1cccc2c(N=Nc3ccc4ccccc4c3O)c(O)cc(S(=O)(=O)[O-])c12.[Na+] [Compound 85561]
0.46 Ratio,29.7%,,,,Cc1ccc2c(ccc(C=Cc3ccc(O)c4ncccc34)[n+]2C)c1 [Compound 85700]
1.10 Ratio,−19.0%,,,,CN(N=O)C(=O)N[C@@H]1[C@@H](O)[C@H](O)[C@@H](CO)O[C@@H]1O [Compound 85998]
1.00 Ratio,18.6%,,,,Cc1c2c(cc3c1[nH]c1ccccc13)C=NCC2 [Compound 86100]
0.92 Ratio,55.6%,,,,Cc1c2ccncc2cc2c1[nH]c1ccccc12 [Compound 87206]
0.93 Ratio,15.8%,,,,O=c1cccccc1O [Compound 89303]
1.18 Ratio,−13.2%,,,,C=C(C)[C@@H]1CC[C@]2(C)CC[C@]3(C)[C@H](CC[C@@H]4[C@@]5(C)CC[C@H](O)C(C)(C)[C@@H]5CC[C@]43C)[C@@H]12 [Compound 90487]
,,−5.9%,1.16 Ratio,,CC(C)(C)C1CCC2(CC1)CCN(CCCN1CCOCC1)CC2 [Compound 90829]
1.04 Ratio,−1.6%,,,,CC1(C)O[C@@H]2C[C@H]3[C@@H]4C[C@H](F)C5=CC(=O)C=C[C@]5(C)[C@@]4(F)[C@@H](O)C[C@]3(C)[C@]2(C(=O)CO)O1 [Compound 92339]
1.00 Ratio,−14.2%,,,,CCCCCCCCCc1c(Cl)nc(Cl)nc1Cl [Compound 92510]
0.91 Ratio,38.9%,,,,COc1cc(O)c2c(c1)C(=O)c1cc3c(c(O)c1C2=O)C(OC1OC(C)C(O)C(O)C1OC)C(OC)C(C)(O)C3=O (centres unmarked) [Compound 93419]
0.81 Ratio,−13.3%,,,,CC1=CC(=C(c2ccc(N)cc2)c2ccc(N)cc2)C=CC1=N.Cl [Compound 93739]
,,−3.8%,0.93 Ratio,,CC(=O)NCCCCCCNC(C)=O [Compound 95580]
0.98 Ratio,−9.0%,,,,NC(=S)NN=Cc1ncccc1O [Compound 95678]
,,7.7%,0.90 Ratio,,COC1(O)C(=O)c2ccccc2OC1(OC)c1ccccc1 (centres unmarked) [Compound 95848]
0.59 Ratio,38.8%,,,,CCN1/C(=C\C(C)=C\c2sc3ccccc3[n+]2CC)Sc2ccccc21.[I-] [Compound 96932]
0.96 Ratio,−9.0%,,,,COc1ccc2cc1Oc1ccc(cc1)CC1c3cc(c(OC)cc3CCN1C)Oc1c(OC)c(OC)cc3c1C(C2)N(C)CC3 (centres unmarked) [Compound 97338]
1.11 Ratio,−9.3%,,,,CC1(c2cccc3ccccc23)OC(=O)c2ccccc21 (centres unmarked) [Compound 97703]

Compound,Int.* (Ratio) (Interference) [1],Inh. (%) (Inhibition) (MBHA with DNA substrate),Inh. (%) (Inhibition) (MBHA with a DNA substrate),Int.* (Ratio) (Interference) [2],"Inh. (%) (Inhibition) (MBHA with DNA substrate, 20 µM)"
[O-][n+]1ccccc1[S-].[O-][n+]1ccccc1[S-].[Zn+2] [Compound 68093],0.90 Ratio,19.5%,,,
Cc1cc(N(CCCl)CCCl)ccc1/C=N/NC(=O)Cc1cc(=O)oc2cc(O)ccc12 [Compound 79688],,,7.5%,0.97 Ratio,
C=C1C(=O)O[C@@H]2C[C@@H](C)[C@@H]3C=CC(=O)[C@@]3(C)[C@@H](O)[C@H]12 [Compound 85236],1.20 Ratio,0.4%,,,
C[C@H]1CCC/C=C/[C@@H]2C[C@H](O)C[C@H]2[C@H](O)/C=C/C(=O)O1 [Compound 89671],,,−5.9%,1.04 Ratio,
CC(=O)c1ccc(Oc2ccc(/C(C)=N/N=C(N)N)cc2)cc1.O=[N+]([O-])O [Compound 97911],,,11.5%,0.95 Ratio,

# Source: patent publication US9464064B2, “HCV helicase inhibitors and methods of use thereof” (University of Kansas, priority 2011, dated 2016)
